{"source": "patent US9963474B2", "about": "“Mitochondria-targeted dicarbonyl sequestering compounds” (MEDICAL RESEARCH COUNCIL, priority 2013, dated 2018)", "key": {"[1]": {"tested_on": "RLM respiring on glutamate/malate", "assay": "Effect on respiration of isolated RLM (oxygen electrode)", "parameters": "species or system rat", "description": "(A, B) RLM respiring on glutamate/malate at 37° C. were incubated with various concentrations of MitoG for 7 min in an oxygen electrode to measure coupled respiration (A) before ADP was added to measure phosphorylating respiration (B). Data are the percentage of the respiration rates of untreated controls (dashed lines). (C and D) C2C12 cells (C) or BAECs [Bovine Aortic Endothelial Cells; Cell Applications Inc, San Diego, Calif.] (D) were incubated with MitoG for 24 h and cell survival was then determined using the MTS assay. Data are expressed as a percentage of the untreated controls (dashed line). (E-H) BAECs were incubated with MitoG for 2 h at 37° C. and the cellular oxygen consumption rate (OCR) after the sequential additions of oligomycin, FCCP and antimycin A/rotenone were then measured using a Seahorse XF24 analyser. (E) OCR due to ATP synthesis, (F) OCR due to proton leak, (G) reserve capacity and (H) non-mitochondrial oxygen consumption. […]\nRat liver mitochondria (RLM) were prepared at 4° C. in STE buffer [250 mM sucrose, 5 mM Tris and 1 mM EGTA, pH 7.4 (HCl)] by homogenisation and differential centrifugation. Protein concentration was determined using the biuret assay relative to bovine serum albumin (BSA) and was typically 40-60 mg/ml. […] Oxygen consumption rates were determined from the slopes using Chart v5.5.6. for Mac (AD Instruments, Australia). […]"}, "C2C12 cells": {"tested_on": "C2C12 cells", "assay": "Protection against dicarbonyl-induced cell death, C2C12, MTS assay", "type": "cell-based, mouse", "details": "pre-treated 1 h, overnight", "description": "(§1) Isolated RLM respiring on glutamate/malate were incubated with MitoG, methoxyphenylenediamine (MP) or butylTPP for 2 min, followed by 0.5 mM methylglyoxal or 5 mM glyoxal for 5 min. ADP was then added and the rate of oxygen consumption monitored at 37° C. (see FIGS. 12A & 12B). C2C12 cells were pre-treated with MitoG, methoxyphenylenediamine (MP) or butylTPP for 1 h before exposure to 1 mM methylglyoxal or 5 mM glyoxal (see FIGS. 12C & 12D). Following an overnight incubation, cell survival was determined using the MTS assay. Similar experiments were conducted in BAECs pre-treated with MitoG, MP or butylTPP. For all experiments, concentrations of methylglyoxal and glyoxal used were chosen based on results from studies conducted prior to the protection assays. In these prior studies, RLM or cells were exposed to a range of dicarbonyl concentrations, and the phosphorylating rates of respiration or cell survival were evaluated. The results of these earlier experiments are shown in insets, and dicarbonyl concentrations that had caused significant respiratory depression or cell death were chosen for use in the protection assays. Data for all groups were normalized against untreated controls. For RLM, the rate of respiration by untreated controls was taken to be 100%; for cells, cell survival of untreated controls was taken to be 100%. Results are expressed as mean±S.E. of three independent experiments. MitoG was protective against methylglyoxal-induced respiratory depression and both methylglyoxal- and glyoxal-induced cell death in C2C12 cells and BAECs. […] In FIG. 12 the symbols *, ** respectively indicate that P<0.05 or P<0.01 relative to dicarbonyl-only groups; and the symbols +, ++ respectively indicate that P<0.05 or P<0.01 relative to untreated controls."}, "BAECs [2]": {"tested_on": "BAECs", "assay": "Protection against dicarbonyl-induced cell death, BAECs, MTS assay", "type": "cell-based, bovine", "details": "pre-treated 1 h, overnight", "description": "as §1"}, "[3]": {"assay": "Competitive rate experiment for methylglyoxal monitored by 1H NMR", "details": "0.12 mM, DMSO, 25° C."}, "BAECs [4]": {"tested_on": "BAECs", "assay": "Cellular oxygen consumption rate, Seahorse XF24", "type": "cell-based, bovine", "description": "(A, B) RLM respiring on glutamate/malate at 37° C. were incubated with various concentrations of MitoG for 7 min in an oxygen electrode to measure coupled respiration (A) before ADP was added to measure phosphorylating respiration (B). Data are the percentage of the respiration rates of untreated controls (dashed lines). (C and D) C2C12 cells (C) or BAECs [Bovine Aortic Endothelial Cells; Cell Applications Inc, San Diego, Calif.] (D) were incubated with MitoG for 24 h and cell survival was then determined using the MTS assay. Data are expressed as a percentage of the untreated controls (dashed line). (E-H) BAECs were incubated with MitoG for 2 h at 37° C. and the cellular oxygen consumption rate (OCR) after the sequential additions of oligomycin, FCCP and antimycin A/rotenone were then measured using a Seahorse XF24 analyser. (E) OCR due to ATP synthesis, (F) OCR due to proton leak, (G) reserve capacity and (H) non-mitochondrial oxygen consumption. Results are means±S.E. of three independent experiments. *, P<0.05 or **, P<0.01 relative to untreated controls.\nThe Seahorse XF24 extracellular flux analyser was used to assess cellular oxygen consumption rate (OCR). […] OCR was determined as follows: cells were washed twice in assay medium [4.15 g/l DMEM base, 1.85 g/l NaCl, ix glutamax (Invitrogen), 1 mM sodium pyruvate, 5 mM D-glucose, 15 mg/l phenol red, 20 mM HEPES and 0.4% (v/v) FCS, pH 7.4] and incubated in 630 μl assay medium for 1 h at 37° C. in air. After 20 min equilibration basal OCR was determined and after 3 h incubation with MitoG sequential injections of oligomycin (1 μg/ml), FCCP (2 μM) and rotenone/antimycin A (4 μg/ml and 5 μM, respectively). OCRs were normalized to cell number as measured using the sulphorhodamine B (SRB) assay as follows: cells were fixed (200 μl 5% trichloroacetic acid at 4° C. for 1 h), washes with water (×3), stained for 20 min with 50 μl 0.4% (w/v) SRB in 1% (v/v) acetic acid, washed (3×1% acetic acid) and the incorporated SRB dye solubilised in 100 μl 10 mM Tris base for 5 min. […]"}}, "data": [{"molecule": "Nc1ccc(OCCCCCC[P+](c2ccccc2)(c2ccccc2)c2ccccc2)cc1N", "note": "[MitoG, (6-(3,4-Diaminophenoxy)hexyl)triphenylphosphonium chloride]", "values": [{"measurement": "coupled respiration (proton leak)", "setting": "[1]; 5 μM MitoG", "value": "slight increase in proton leak"}, {"measurement": "phosphorylating respiration", "setting": "[1]; up to 5 μM MitoG", "value": "no effect"}, {"measurement": "protection against methylglyoxal-induced cell death", "setting": "C2C12 cells; C2C12, 1 mM methylglyoxal", "value": "protective"}, {"measurement": "protection against glyoxal-induced cell death", "setting": "C2C12 cells; C2C12, 5 mM glyoxal", "value": "protective"}, {"measurement": "protection against glyoxal-induced cell death", "setting": "BAECs [2]", "value": "protective"}, {"measurement": "protection against methylglyoxal-induced cell death", "setting": "BAECs [2]", "value": "protective"}, {"measurement": "reactivity relative to o-phenylenediamine for methylglyoxal", "setting": "[3]", "value": "~1.8", "unit": "×"}, {"measurement": "OCR due to proton leak", "setting": "BAECs [4]; 2-5 μM", "value": "trend to an increased OCR due to proton leak"}, {"measurement": "respiratory reserve capacity", "setting": "BAECs [4]; 2-5 μM", "value": "decreased respiratory reserve capacity"}, {"measurement": "OCR due to ATP synthesis", "setting": "BAECs [4]; concentrations above 10 μM", "value": "slightly decreased"}]}]}
